17 compounds from patent US7238720B2, “Pharmaceutical use of N-carbamoylazole derivatives” (Eisai R & D Management Co. Ltd., priority 2001, dated 2007) can be followed below.

Test [1] concerns the target T1, DPP-IV, obtained from porcine kidneys (Sus scrofa, UniProt P22411).
T1 construct: DPP-IV, obtained from porcine kidneys; from tissue; host or cells: porcine kidney
Nature of the test: Measurement of DPPIV inhibiting effects (Gly-Pro-p-nitroanilide, absorbance at 405 nm). It is filed as biochemical. The following applies: porcine kidney DPP-IV 10 mU/mL, 20 min preincubation, Gly-Pro-p-nitroanilide 0.33 mM, pH 7.4. How it is done: Measurement of DPPIV Inhibiting Effects
DPP-IV, obtained from porcine kidneys, was dissolved in a reaction buffer solution (50 mM Tris-HCl, pH 7.4, 0.1% BSA) such that the concentration of DPP-IV was at 10 mU/mL. This solution (110 μl) was placed into test tubes, to which compounds to be tested were further added at a quantity of 15 μl and incubated at room temperature for 20 minutes. Twenty-five microliters of a solution in which Gly-Pro-p-nitroanilide was dissolved at 2 mM was added (final concentration, 0.33 mM) to start the enzymatic reaction. The reaction time was 20 minutes. The reaction was stopped by the addition of 25 μl of 1 N phosphoric acid.

For test [2], the system named is male C57BL/6N mice. As to the kind of experiment: Glucose-tolerance improving effects in normal mice, Experiments 1 and 2 (compound given orally mixed with glucose). Type of test: in vivo. The conditions noted are these: for Blood Glucose, At Indicated Times (min.) After Oral Administration: mean ± standard error. How it is done:
(§1) Test for Identifying Glucose-Tolerance Improving Effects
(§2) Effects on Glucose-Tolerance Ability of Normal Mice
(§3) Animals: Five or six male C57BL/6N mice per group (purchased from Charles River Japan, Inc.).
Compounds to be tested were suspended in a 0.5% aqueous solution of methylcellulose and mixed with an equal volume of a glucose solution, and administered orally at a volume of 10 ml/kg at doses indicated in Tables below. Vehicle control groups received orally a mixture of a 0.5% aqueous solution of methylcellulose and an equal volume of a glucose solution at a volume of 10 ml/kg. Glucose was given at a dose of 2 g/kg.
The blood was drawn from the tail vein immediately before and at 30, 60, and 120 minutes after the administration of mixed solutions of the compounds to be tested and glucose, and subjected to the measurement of the blood glucose value.
(§4) The tail vein of the mice was injured, without anesthesia, with a razor to cause slight bleeding. Ten microliters of blood was collected, and mixed immediately with […] of 0.6 M perchloric acid. The glucose in supernatants obtained by centrifugation (1500 g, 10 min. 4° C., in a cooled centrifuge GS-6KR from Beckman Ltd.) was determined employing a Glucose CII Test Wako kit (Wako Pure Chemical Industries, Ltd.).
(§5) The results are expressed by mean value±standard error.

Test [3] has as its system male C57BL/6N mice. Nature of the test: Glucose-tolerance improving effects in normal mice, Experiment 3 (compound given orally 30 minutes before glucose). It is filed as in vivo. The conditions noted are these: for Blood Glucose, At Indicated Times After Glucose-Solution Administration (min.): 1 mg/kg oral 30 min before glucose 2 g/kg, mean ± standard error. How it is done:
as §1, §2, §3
The suspension of the compound to be tested and 0.5% methylcellulose solution which was the vehicle control group were administered orally at a volume of 10 ml/kg, and at 30 minutes after administration, a glucose solution was administered orally at a volume of 10 ml/kg. Glucose was given at a dose of 2 g/kg.
The blood was drawn from the tail vein immediately before the administration of the compound to be tested, and immediately before and at 30, 60, and 120 minutes after the administration of the glucose solution, and subjected to the measurement of the blood glucose value.
as §4, §5

Structures are written as SMILES.

T1 sequence (P22411 whole entry): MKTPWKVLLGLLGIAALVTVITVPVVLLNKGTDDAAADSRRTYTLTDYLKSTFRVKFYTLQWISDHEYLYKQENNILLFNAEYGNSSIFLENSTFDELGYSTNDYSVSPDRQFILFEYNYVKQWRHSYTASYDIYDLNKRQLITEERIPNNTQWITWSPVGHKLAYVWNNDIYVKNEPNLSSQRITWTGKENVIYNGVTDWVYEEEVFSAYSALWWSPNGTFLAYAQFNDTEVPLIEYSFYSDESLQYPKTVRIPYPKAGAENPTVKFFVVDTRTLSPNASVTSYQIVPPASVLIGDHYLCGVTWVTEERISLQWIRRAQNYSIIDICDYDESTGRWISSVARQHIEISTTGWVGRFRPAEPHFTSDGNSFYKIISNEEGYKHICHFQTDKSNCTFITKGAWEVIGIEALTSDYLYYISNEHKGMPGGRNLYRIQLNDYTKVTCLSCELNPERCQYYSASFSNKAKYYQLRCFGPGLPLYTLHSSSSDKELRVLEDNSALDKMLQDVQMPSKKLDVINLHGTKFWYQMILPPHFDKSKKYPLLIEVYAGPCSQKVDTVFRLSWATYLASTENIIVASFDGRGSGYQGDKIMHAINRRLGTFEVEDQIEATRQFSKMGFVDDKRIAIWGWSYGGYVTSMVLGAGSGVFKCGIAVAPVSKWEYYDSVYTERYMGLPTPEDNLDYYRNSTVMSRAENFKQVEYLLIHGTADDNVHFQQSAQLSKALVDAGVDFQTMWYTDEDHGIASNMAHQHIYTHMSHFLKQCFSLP

On to `CN(C)C(=O)n1cnc(S(=O)(=O)Cc2ccccc2)n1` [Example 2, 3-Benzylsulfonyl-1-dimethylcarbamoyl-1H-1,2,4-triazole], for which, in test [1], it took 1390 nM to reach half-maximal inhibition (IC50). For the same compound, the “Blood Glucose, At Indicated Times (min.) After Oral Administration” value with male C57BL/6N mice [2] (Experiment 1, 30 mg/kg oral with glucose 2 g/kg, 0 min (immediately before administration)) was found to be 75.8 ± 1.5 mg/dL; with male C57BL/6N mice [2] (Experiment 1, 30 mg/kg oral with glucose 2 g/kg, 30 min), 159.8 ± 5.5 mg/dL; with male C57BL/6N mice [2] (Experiment 1, 30 mg/kg oral with glucose 2 g/kg, 60 min) it was 133.8 ± 4.1 mg/dL; with male C57BL/6N mice [2] (Experiment 1, 30 mg/kg oral with glucose 2 g/kg, 120 min), 109.6 ± 3.0 mg/dL.

As for `CN(C)C(=O)n1cnc(S(=O)(=O)[C@@H]2C[C@@H]3CC[C@H]2C3)n1` (relative stereo) [Example 13, 3-(Endo-norbornan-2-yl)sulfonyl-1-dimethylcarbamoyl-1H-1,2,4-triazole], inhibition in test [1] was half-maximal at 164 nM (IC50). Also, the “Blood Glucose, At Indicated Times (min.) After Oral Administration” value in the test with male C57BL/6N mice [2] (Experiment 2, 3 mg/kg oral with glucose 2 g/kg, 0 min (immediately before administration)) was determined as 73.9 ± 3.0 mg/dL; in the test with male C57BL/6N mice [2] (Experiment 2, 3 mg/kg oral with glucose 2 g/kg, 30 min) it was 177.7 ± 6.3 mg/dL; in the test with male C57BL/6N mice [2] (Experiment 2, 3 mg/kg oral with glucose 2 g/kg, 60 min) it was 139.7 ± 6.7 mg/dL; with male C57BL/6N mice [2] (Experiment 2, 3 mg/kg oral with glucose 2 g/kg, 120 min) it was 92.5 ± 2.4 mg/dL; with male C57BL/6N mice [2] (Experiment 2, 10 mg/kg oral with glucose 2 g/kg, 0 min (immediately before administration)), 73.3 ± 2.8 mg/dL; in the test on male C57BL/6N mice [2] (Experiment 2, 10 mg/kg oral with glucose 2 g/kg, 30 min) it was 159.9 ± 9.9 mg/dL. The “Blood Glucose, At Indicated Times (min.) After Oral Administration” value worked out at 129.3 ± 9.1 mg/dL with male C57BL/6N mice [2] (Experiment 2, 10 mg/kg oral with glucose 2 g/kg, 60 min); 90.6 ± 3.2 mg/dL with male C57BL/6N mice [2] (Experiment 2, 10 mg/kg oral with glucose 2 g/kg, 120 min); 70.4 ± 4.0 mg/dL in the test on male C57BL/6N mice [2] (Experiment 2, 30 mg/kg oral with glucose 2 g/kg, 0 min (immediately before administration)); 148.7 ± 5.1 mg/dL in the test with male C57BL/6N mice [2] (Experiment 2, 30 mg/kg oral with glucose 2 g/kg, 30 min); 127.3 ± 5.9 mg/dL in the test on male C57BL/6N mice [2] (Experiment 2, 30 mg/kg oral with glucose 2 g/kg, 60 min); 93.7 ± 2.3 mg/dL with male C57BL/6N mice [2] (Experiment 2, 30 mg/kg oral with glucose 2 g/kg, 120 min). The “Blood Glucose, At Indicated Times (min.) After Oral Administration” value turned out to be 72.0 ± 2.1 mg/dL in the test with male C57BL/6N mice [2] (Experiment 2, 100 mg/kg oral with glucose 2 g/kg, 0 min (immediately before administration)); 147.1 ± 16.2 mg/dL with male C57BL/6N mice [2] (Experiment 2, 100 mg/kg oral with glucose 2 g/kg, 30 min); 133.7 ± 8.8 mg/dL with male C57BL/6N mice [2] (Experiment 2, 100 mg/kg oral with glucose 2 g/kg, 60 min); 106.2 ± 5.4 mg/dL in the test on male C57BL/6N mice [2] (Experiment 2, 100 mg/kg oral with glucose 2 g/kg, 120 min). The “effect on glucose-tolerance ability of normal mice” value in the test on male C57BL/6N mice [2] (oral administration, Experiments 1 and 2, result in words) is given as “distinct effect”.

`COCCOc1cccc(C)c1S(=O)(=O)c1ncn(C(=O)N(C)C)n1` [Example 43, 3-[2-(2-Methoxyethyl)oxy-6-methylphenyl]sulfonyl-1-dimethylcarbamoyl-1H-1,2,4-triazole] registered a half-inhibitory concentration (IC50) in test [1] of 4.34 nM. In addition, the “Blood Glucose, At Indicated Times After Glucose-Solution Administration (min.)” value with male C57BL/6N mice [3] (0 min (immediately before glucose)) came to 89.8 ± 2.1 mg/dL; with male C57BL/6N mice [3] (30 min), 173.8 ± 5.1 mg/dL; with male C57BL/6N mice [3] (60 min), 170.8 ± 5.7 mg/dL; with male C57BL/6N mice [3] (120 min), 112.1 ± 2.5 mg/dL; in the test with male C57BL/6N mice [3] (−30 min (immediately before compound administration)) it was 70.8 ± 1.5 mg/dL. In addition, the “effect on glucose-tolerance ability of normal mice” value with male C57BL/6N mice [3] (oral administration, result in words) is “distinct effect”.

In test [1], `CN(C)C(=O)n1cnc(SCC2CCCCC2)n1` [Example 16, 3-Cyclohexylmethylthio-1-dimethylcarbamoyl-1H-1,2,4-triazole] registered an IC50 of 5530 nM.

For the compound `CCCN(C)C(=O)n1cnc(S(=O)(=O)c2c(C)cc(C)cc2C)n1` [Example 37, 3-(2,4,6-Trimethylphenyl)sulfonyl-1-(N-methyl-N-propylcarbamoyl)-1H-1,2,4-triazole], inhibition in test [1] was half-maximal at 10 nM (IC50).

Regarding `CN(C)C(=O)n1cnc(S(=O)(=O)C(c2ccc(F)cc2)c2ccc(F)cc2)n1` [Example 9, 3-[Bis(4-fluorophenyl)methyl]sulfonyl-1-dimethylcarbamoyl-1H-1,2,4-triazole], the IC50 in test [1] was determined as 219 nM.

Compound `CN(C)C(=O)n1cnc(S[C@@H]2C[C@@H]3CC[C@H]2C3)n1` (relative stereo) [Example 12, 3-(Endo-norbornan-2-yl)thio-1-dimethylcarbamoyl-1H-1,2,4-triazole] had an IC50 in test [1] of 1730 nM.

In test [1], `CN(C)C(=O)n1cnc(SCc2ccccc2)n1` [Example 1, 3-Benzylthio-1-dimethylcarbamoyl-1H-1,2,4-triazole] came in with an IC50 of 4690 nM.

Regarding `COCCOc1cccc(C)c1Sc1ncn(C(=O)N(C)C)n1` [Example 42, 3-[2-(2-Methoxyethyl)oxy-6-methylphenyl]thio-1-dimethylcarbamoyl-1H-1,2,4-triazole], in test [1], the half-maximal inhibitory concentration (IC50) stood at 551 nM.

For the compound `O=C(N1CCSC1)n1cnc(S(=O)(=O)[C@@H]2C[C@@H]3CC[C@H]2C3)n1` (relative stereo) [Example 25, 3-(Endo-norbornan-2-yl)sulfonyl-1-(1,3-thiazolidin-3-yl)carbonyl-1H-1,2,4-triazole], the IC50 in test [1] was 57.4 nM.

In turn, `CN(C)C(=O)n1cnc(S(=O)(=O)CC23CC4CC(CC(C4)C2)C3)n1` [Example 19, 3-(1-Adamantylmethyl)sulfonyl-1-dimethylcarbamoyl-1H-1,2,4-triazole] displayed an IC50 in test [1] of 233 nM.

Take `Cc1cccc(OCC(F)(F)F)c1S(=O)(=O)c1ncn(C(=O)N(C)C)n1` [Example 41, 3-[2-(2,2,2-Trifluoroethyl)oxy-6-methylphenyl]sulfonyl-1-dimethyl-carbamoyl-1H-1,2,4-triazole]: the IC50 in test [1] turned out to be 4.25 nM.

The compound `CN(C)C(=O)n1cnc(S(=O)(=O)c2cccc(Br)n2)n1` [Example 53, 3-(6-Bromo-2-pyridyl)sulfonyl-1-dimethylcarbamoyl-1H-1,2,4-triazole] returned an IC50 in test [1] of 351 nM.

In the case of `Cc1nc2ccccn2c1Sc1ncn(C(=O)N(C)C)n1` [Example 50, 3-(2-Methylimidazo[1,2-a]pyridin-3-yl)thio-1-dimethylcarbamoyl-1H-1,2,4-triazole], the half-maximal inhibitory concentration (IC50) in test [1] amounted to 5380 nM.

In test [1], `Cc1cc(C)c([S+]([O-])c2ncn(C(=O)N(C)C)n2)c(C)c1` (centres unmarked) [Example 39, 3-(2,4,6-Trimethylphenyl)sulfinyl-1-dimethylcarbamoyl-1H-1,2,4-triazole] gave an IC50 of 22.8 nM.

Regarding `C=CCN(C)C(=O)n1cnc(S(=O)(=O)[C@@H]2C[C@@H]3CC[C@H]2C3)n1` (relative stereo) [Example 27, 3-(Endo-norbornan-2-yl)sulfonyl-1-(N-methyl-N-allylcarbamoyl)-1H-1,2,4-triazole], in test [1], the 50% inhibitory concentration (IC50) was 78.2 nM.

Regarding `Cc1noc(C)c1S(=O)(=O)c1ncn(C(=O)N(C)C)n1` [Example 47, 3-(3,5-Dimethylisoxazol-4-yl)sulfonyl-1-dimethylcarbamoyl-1H-1,2,4-triazole], the IC50 in test [1] worked out at 103 nM.
